For one assay, the system named is HepG2. Description: Cytotoxicity against human HepG2 cells after 3 days. In kind it is functional, cell-based. The settings on record: HepG2, 72 h.
A short description of assay [1]: Cytotoxicity against human HepG2(2.2.15) cells after 3 days. The settings on record: HepG2 2.2.15, 72 h. In kind it is functional, cell-based.

A word on the IC50: it is the concentration that gives 50% inhibition. A low value points to greater potency in that assay.

≈ marks a conversion by molar mass, not a printed value.

As for `CCCCCCCCCCCC[C@@H](O)[C@H]1CC[C@@H]([C@@H](O)CCCCCCC(O)CCCCC[C@@H](O)CC2=C[C@H](C)OC2=O)O1` (stereo partly drawn), the IC50 in the assay with HepG2 was 0.298 mg/L (≈ 0.477 µM); in assay [1] it was 0.0162 mg/L (≈ 0.0259 µM).
The like results for `CCC[C@H](O)[C@@H](O)CCCCCCCC[C@@H](O)[C@H]1CC[C@H](CCCCCCCCCC[C@@H](O)CC2=C[C@H](C)OC2=O)O1` [ANNOCATALIN] were, in that order, 5.7 mg/L (≈ 9.55 µM) and 0.00348 mg/L (≈ 0.00583 µM).
The like results for `CCCCCCCCCCCC[C@@H](O)[C@H]1CC[C@@H]([C@@H](O)CCCCC(=O)CCCCCCCC2=C[C@H](C)OC2=O)O1` [COROSSOLONE] were, in that order, 0.165 mg/L (≈ 0.285 µM) and 0.0476 mg/L (≈ 0.0822 µM).
On the same counts, the results for `COc1cccc2c1C(=O)c1c(O)c3c(c(O)c1C2=O)C[C@@](O)(C(=O)CO)C[C@@H]3O[C@H]1C[C@H](N)[C@H](O)[C@H](C)O1` [DOXORUBICIN] are 0.241 mg/L (≈ 0.443 µM) and 0.45 mg/L (≈ 0.828 µM).
Regarding `CCCCCC(O)C(O)CCCCCC[C@@H](O)[C@H]1CC[C@H](CCCCCCCCCC[C@@H](O)CC2=C[C@H](C)OC2=O)O1` (stereo partly drawn) [MURICIN A], the half-maximal inhibitory concentration (IC50) in the assay on HepG2 is 5.04 mg/L (≈ 8.44 µM); in assay [1], 0.00513 mg/L (≈ 0.00859 µM).
As to `CCCCCC(O)C(O)CCCCCC[C@H](O)[C@@H]1CC[C@H](CCCCCCCCCC[C@H](O)CC2=C[C@H](C)OC2=O)O1` (stereo partly drawn) [MURICIN B], the IC50 with HepG2 turned out to be 1.78 mg/L (≈ 2.98 µM); in assay [1] it was 0.00429 mg/L (≈ 0.00719 µM).
For `CCCCCCCC(O)C(O)CC[C@H](O)[C@@H]1CC[C@H](CCCCCCCCCCCC[C@@H](O)CC2=C[C@H](C)OC2=O)O1` (stereo partly drawn) [MURICIN C], the concentration for half-maximal inhibition (IC50) was determined as 0.499 mg/L (≈ 0.836 µM) with HepG2 and 0.00387 mg/L (≈ 0.00648 µM) in assay [1].
The like results for `CCCCCCC[C@H](O)[C@@H](O)CCCC[C@@H](O)[C@H]1CC[C@H](CCCCCCCCCCCCC2=C[C@H](C)OC2=O)O1` [MURICIN H] were, in that order, 0.0951 mg/L (≈ 0.164 µM) and 0.0118 mg/L (≈ 0.0203 µM).
With `CCCCC/C=C\CC[C@H](O)[C@@H](O)CCCC[C@@H](O)[C@H]1CC[C@H](CCCCCCCCCCCCC2=C[C@H](C)OC2=O)O1` [MURICIN I], the figures for the IC50 (with HepG2; in assay [1]) were 0.0509 mg/L (≈ 0.0839 µM) and 0.222 mg/L (≈ 0.366 µM), respectively.

These data come from ChEMBL document CHEMBL1148113, “New cytotoxic monotetrahydrofuran annonaceous acetogenins from Annona muricata” (J Nat Prod, 2002).
